Test results taken from patent publication US20190083455A1, “METHODS AND COMPOSITIONS FOR THE MODULATION OF BETA-ENDORPHIN LEVELS” (The General Hospital Corporation, priority 2014, published 2019).
Where “and” joins values, the source holds several entries; their conditions need not be identical. Equal entries are not always repeated. Structures can show the parent of a compound that is named as a salt.

Legend:
Format in all cases: in vivo
K14-e/e and e/e mice = experiment: Naloxone-precipitated symptoms of opiate withdrawal in forskolin plus rolipram treated mice; details: individual forskolin plus rolipram treated mice, naloxone 2 mg/kg; for Rearing: 25 min; for Jumping: events in 25 min; for Diarrhea: fecal pellets at 25 min; for Paw Tremor / Teeth Chatter / Wet Dog Shake / oming: occurrence per 15 sec interval over 25 min
Description: Female mice were treated with 40 μL of 20%-Forskolin extract daily and 40 μL of rolipram (Sigma) 20 μM in DMSO or vehicle control. Basal blood samples were collected at the beginning of each experiment. After treatment started, blood samples were collected once a week. After 4 weeks of continuous exposure to forskolin and rolipram or vehicle control, mice were injected with saline or naloxone and symptoms of opiate withdrawal were measured for 25 min post injection. Naloxone (St. Luis, Mo.) was diluted in saline at […] and was administrated to mice ˜200 μL, depending on the mass of each mouse (2 mg/kg). Symptoms assigned were wet dog shake (WDS), paw tremor, jumping, bouts of grooming, teeth chatter (TC), rearing and diarrhea. The occurrence in each 15 sec interval of WDS, paw tremor, bouts of grooming and teeth chatter (TC) was used to quantify these parameters. The number of fecal pellets and the individual jumping events at the end of 25 min were quantified for these two factors.
Finally, the functional significance of systemic β-endorphin elevations upon cAMP activation was tested by carrying out behavioral studies on forskolin plus rolipram treated mice.

C57Bl/6 mice [1] = experiment: Conditioned place aversion testing
Description: The apparatus used consisted of a box with black interior and dim lighting and a box with white interior and bright lighting connected by a smaller gray “neutral” box, and procedures were followed as described (Skoubis et al., 2001; Weitemier and Murphy, 2009). Mice that had undergone 6 weeks of daily UV exposure or mock exposure were tested for baseline place preferences prior to conditioning (10-minute testing time per mouse). Over the following 4 days, conditioning took place in which mice were either conditioned with naloxone (10 mg/kg ip injection) or saline (ip injection) in the black box, and all animals were conditioned with saline (ip injection) in the white box. Conditioning time in each box was 30 minutes following injection. For each animal there were four hours between conditioning in one box and conditioning in the other box. On the day following the final day of conditioning, place preferences were again tested (post-conditioning, 10-minute testing time per mouse).
Because the magnitude of the measured withdrawal symptoms, while significant, was smaller than that commonly observed with exogenously administered opioids (Broseta et al., 2002), we wished to determine whether these withdrawal signs would be sufficient to elicit alterations in pro-active/operant behavioral choices. We utilized a conditioned place aversion assay (Skoubis et al., 2001; Weitemier and Murphy, 2009) to test whether a specific environment, paired with naloxone administration during conditioning, would be avoided in favor of a different environment paired with a neutral stimulus (saline) during conditioning in chronically UV-irradiated animals. Due to the kinetics of the UV response we chose to use naloxone as it allowed an acute effect of limited duration. Naloxone induces conditioned place aversion in exogenous opioid-dependent mice (Glass et al., 2008; Kenny et al., 2006). Following conditioning, mice were permitted to move freely between the two environments and changes in place preference were measured, in the absence of additional naloxone or saline administration. […]

C57Bl/6 mice [2] = experiment: Somatic symptoms of opiate withdrawal after chronic UV exposure; details: 2 mg/kg ip after 6 weeks of daily UV exposure; observed 25 minutes
Description: Mice that had undergone 6 weeks of daily UV exposure or mock exposure were injected (ip) with either 2 mg/kg naloxone or saline, and signs of opioid withdrawal were tabulated as described (Olson et al., 2006). […] Wet dog shake, teeth chatter, and bouts of grooming were measured as occurrence in each 15-second interval. Individual rearing events were counted. Number of fecal pellets at the end of the 25-minute interval was used to quantify diarrhea.

C57Bl/6 mice [3] = experiment: Analgesic threshold testing (von Frey test and hot plate test) during UV/mock regimen; details: 10 mg/kg ip 15 min prior to testing; chronically UV-irradiated mice
Excerpt: Mice underwent mechanical and thermal analgesic testing during UV/mock treatment regimens using the von Frey test (Kwan et al., 2006) and the hot plate test respectively (Mogil et al., 1999). In the von Frey test, mice were placed in individual enclosures on an elevated wire mesh rack and the plantar surface of the left hind paw was serially poked with fibers of increasing tensile strength (10 times per fiber at a rate of 1/second) until a paw withdrawal response was elicited on 2/10 pokes. In the hot plate test, mice were placed on a 52° C. hot plate and time to response (paw flutter, paw licking, jumping) was measured. […]
We developed a UV-exposure mouse model in which dorsally-shaved mice received a dose of 50 mJ/cm^2 of UVB, 5 days per week for 6 weeks, an empirically-derived sub-erythemic dose which is approximately equal to 20-30 minutes of ambient midday sun exposure in Florida during the summer for a fair-skinned person of average tanning ability (Fitzpatrick skin phototypes 2-3) (D'Orazio et al., 2006; Technology-Planning-and-Management-Corporation, 2000; US-EPA, 1994). […] We quantified mechanical and thermal nociceptive thresholds over six weeks of daily UV exposure. Mechanical nociception was measured by the von Frey test (Kwan et al., 2006), which exposes fibers of increasing tensile strength to the plantar paw surface to elicit a paw withdrawal response. […]

**Q.** Which results are given for `C=CCN1CC[C@]23c4c5ccc(O)c4O[C@H]2C(=O)CC[C@@]3(O)[C@H]1C5` [naloxone, naloxone hydrochloride]?
**A.** Rearing (K14-e/e and e/e mice; K14:e/e): 0; Jumping (K14-e/e and e/e mice; K14:e/e): 0; Diarrhea (K14-e/e and e/e mice; K14:e/e, hydrochloride): 0 and 1; Paw Tremor (K14-e/e and e/e mice; K14:e/e, hydrochloride): 0 and 2; Teeth Chatter (K14-e/e and e/e mice; K14:e/e, hydrochloride): 80 and 107; Wet Dog Shake (K14-e/e and e/e mice; K14:e/e, hydrochloride): 145 and 135; oming (K14-e/e and e/e mice; K14:e/e, hydrochloride): 17 and 2; Rearing (K14-e/e and e/e mice; e/e, hydrochloride): 0 and 18; Jumping (K14-e/e and e/e mice; e/e): 0; Diarrhea (K14-e/e and e/e mice; e/e, hydrochloride): 1 and 2; Paw Tremor (K14-e/e and e/e mice; e/e, hydrochloride): 4 and 34; Teeth Chatter (K14-e/e and e/e mice; e/e, hydrochloride): 116 and 75; Wet Dog Shake (K14-e/e and e/e mice; e/e, hydrochloride): 120 and 76; oming (K14-e/e and e/e mice; e/e, hydrochloride): 13 and 19; conditioned place aversion (C57Bl/6 mice [1]; 10 mg/kg ip conditioning in the black box, chronically UV-irradiated mice): sufficient to induce conditioned place aversion; conditioned place aversion (C57Bl/6 mice [1]; 10 mg/kg ip conditioning in the black box, mock-treated (non-UV irradiated) control mice): had no effect on mock-treated (non-UV irradiated) control mice; conditioned place aversion (C57Bl/6 mice [1]; K14cre control mice vs p53fl/fl K14cre mice after 3 weeks of daily UV exposure): significant naloxone conditioned place aversion; signs of opioid withdrawal (C57Bl/6 mice [2]): elicited many of the classic murine signs of opioid withdrawal; mechanical nociceptive threshold (von Frey) (C57Bl/6 mice [3]): suppressed the UV-induced increases in mechanical and thermal nociceptive thresholds; thermal nociceptive threshold (hot plate 52° C.) (C57Bl/6 mice [3]): suppressed the UV-induced increases in mechanical and thermal nociceptive thresholds
